In ChEMBL document CHEMBL4414677, “Albanitriles A-G: Antiprotozoal Polyacetylene Nitriles from a Mycale Marine Sponge” (J Nat Prod, 2019) one finds MIC and MCC data, which are given here for 8 molecules.

One series relates to Giardia intestinalis. Put plainly: Antiprotozoal activity against Giardia duodenalis 713 assessed as protozoal growth inhibition measured after 96 hrs under anaerobic conditions. The following applies: Giardia duodenalis, 713, 96 h. In kind it is functional.
A further series concerns Tritrichomonas foetus. Briefly: Antiprotozoal activity against Tritrichomonas foetus KV1 assessed as protozoal growth inhibition measured after 72 hrs under anaerobic conditions. In kind it is functional. The following applies: KV1, 72 h.
A short description of series [1]: Cytotoxicity against mouse NS1 cells assessed as cell growth inhibition measured after 96 hrs by resazurin assay. In kind it is cell-based. The following applies: read-out: MIC.
A short description of series [2]: Cytotoxicity against human NFF cells assessed as cell growth inhibition measured after 96 hrs by resazurin assay. Format: cell-based. The following applies: read-out: MIC.
The subject of another series is Bacillus spizizenii. Briefly: Antibacterial activity against Bacillus subtilis ATCC 6633 assessed as bacterial growth inhibition measured after 48 hrs by resazurin assay. Format: functional. The following applies: ATCC 6633, 48 h.
A further series relates to Escherichia coli. Put plainly: Antibacterial activity against Escherichia coli ATCC 25922 assessed as bacterial growth inhibition measured after 48 hrs by resazurin assay. The following applies: ATCC 25922, 48 h. In kind it is functional. Background: Resazurin is reduced to fluorescent resorufin, in cell work by metabolically active cells.
In another series the test system is Candida albicans. Put plainly: Antifungal activity against Candida albicans ATCC 10231 assessed as fungal growth inhibition measured after 48 hrs by bromocresol green dye based assay. Format: functional.

In brackets after ≈: the same amount, converted by molar mass.

Consider `Cc1ncc([N+](=O)[O-])n1CCO` [METRONIDAZOLE], for which the results for the MIC in the series on Giardia intestinalis and with Tritrichomonas foetus were 2.9 µM (≈ 0.496 µg/mL) and 1.2 µM (≈ 0.205 µg/mL), respectively.
Turning to `CSC[S@+]([O-])C[C@H](CO)NC(=O)/C=C/c1c(C)[nH]c(=O)[nH]c1=O`, the MCC at 96 h in series [1] is 0.55 µM; in series [2], 1.7 µM.
Take `CN(C)[C@@H]1C(O)=C(C(N)=O)C(=O)[C@@]2(O)C(O)=C3C(=O)c4c(O)cccc4[C@@](C)(O)[C@H]3C[C@@H]12` [TETRACYCLINE]: the MIC – broadly, the smallest concentration in the dilution series that meets the test's criterion for growth inhibition – in the series on Bacillus spizizenii is 0.9 µM (≈ 0.4 µg/mL); in the series on Escherichia coli it was 14 µM (≈ 6.22 µg/mL).
On to `N#CCCCCC#CC#CC#CCCCCCC=O`, for which the MCC at 96 h was determined as 100 µM in series [1] and 50 µM in series [2]. Also, the MIC in the series with Bacillus spizizenii is 400 µM (≈ 101 µg/mL); with Escherichia coli it was above 400 µM; with Candida albicans (ATCC 10231, 48 h), above 400 µM; in the series on Giardia intestinalis, 400 µM (≈ 101 µg/mL); with Tritrichomonas foetus it was 200 µM (≈ 50.7 µg/mL).
As for NYSTATIN, the MIC in the series with Candida albicans was determined as 1.7 µM.
Regarding `N#CCCCCC#CC#CC#CCCCCCC(O)C#N` (stereo not given), the MCC at 96 h in series [1] turned out to be 180 µM; in series [2] it was 90 µM. In addition, the MIC in the series with Bacillus spizizenii is 90 µM (≈ 25.2 µg/mL); in the series on Escherichia coli, above 360 µM; in the series on Candida albicans (ATCC 10231, 48 h), above 360 µM; with Giardia intestinalis, 90 µM (≈ 25.2 µg/mL); in the series on Tritrichomonas foetus, above 360 µM.
In the case of `N#CCCCCC#CC#CC#CCCCCCCC#N`, the MCC at 96 h stood at 50 µM in series [1] and 100 µM in series [2]. The minimal inhibitory concentration (MIC) in the series on Bacillus spizizenii was 400 µM (≈ 106 µg/mL); with Escherichia coli, above 400 µM; in the series with Candida albicans (ATCC 10231, 48 h), above 400 µM; in the series with Giardia intestinalis it was 12 µM (≈ 3.17 µg/mL); in the series on Tritrichomonas foetus, 190 µM (≈ 50.2 µg/mL).
In the case of `N#CCCCCC#CC#CC#CCCCCCC#N`, the MCC at 96 h is 50 µM in series [1] and 100 µM in series [2]. For the same molecule, the MIC in the series on Bacillus spizizenii was above 400 µM; in the series on Escherichia coli, above 400 µM; in the series with Candida albicans (ATCC 10231, 48 h), above 400 µM; with Giardia intestinalis, 25 µM (≈ 6.26 µg/mL); in the series with Tritrichomonas foetus it was 200 µM (≈ 50.1 µg/mL).
